According to paper PMC12951562, “SH2scan: Mapping SH2 Domain-Ligand Binding Selectivity for Inhibitors and Degraders” (Journal of Medicinal Chemistry, 2026):
Like-named read-outs stand apart in the source and are kept apart here.

Columns and labels:
Experiment in all cases: biochemical
Assay type in all cases: binding
GRB10 = molecular target: T1, GRB10 (Homo sapiens, UniProt Q13322); details: for percent of DMSO vehicle control at 10 µM / remaining activity at 10 µM: read-out: percent of DMSO vehicle control; for remaining activity at 10 µM: primary screen
T1 construct: the DNA-tagged SH2 domain concentrations used in this study were <0.1 nM; made in house; host or cells: HEK293 (transient transfection; unpurified extract)
T1 sequence (Q13322 493-574 limits assumed): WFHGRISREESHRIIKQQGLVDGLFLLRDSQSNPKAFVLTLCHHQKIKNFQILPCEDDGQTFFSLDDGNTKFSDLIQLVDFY

SOCS4 = molecular target: T2, SOCS4 (Homo sapiens, UniProt Q8WXH5); details: for Kd: dose-response; for remaining activity at 10 µM: read-out: percent of DMSO vehicle control
T2 construct: made in house; host or cells: HEK293 (transient transfection), unpurified extract
T2 sequence (Q8WXH5 1-440): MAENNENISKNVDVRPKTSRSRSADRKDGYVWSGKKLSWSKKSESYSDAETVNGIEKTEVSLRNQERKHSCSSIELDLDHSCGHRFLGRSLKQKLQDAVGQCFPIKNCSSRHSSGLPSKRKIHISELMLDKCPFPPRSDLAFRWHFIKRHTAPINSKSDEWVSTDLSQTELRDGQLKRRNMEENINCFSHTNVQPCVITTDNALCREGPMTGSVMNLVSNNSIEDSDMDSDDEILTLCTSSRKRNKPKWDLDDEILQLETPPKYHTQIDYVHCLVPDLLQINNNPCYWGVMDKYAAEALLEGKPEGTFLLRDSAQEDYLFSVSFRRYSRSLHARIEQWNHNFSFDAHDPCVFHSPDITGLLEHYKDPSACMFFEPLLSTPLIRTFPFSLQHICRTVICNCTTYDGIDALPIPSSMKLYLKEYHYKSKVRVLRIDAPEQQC

SHC2 = molecular target: T3, SHC2 (Homo sapiens, UniProt P98077); details: read-out: percent of DMSO vehicle control
T3 construct: made in house; host or cells: HEK293 (transient transfection), unpurified extract
T3 sequence (P98077 1-582): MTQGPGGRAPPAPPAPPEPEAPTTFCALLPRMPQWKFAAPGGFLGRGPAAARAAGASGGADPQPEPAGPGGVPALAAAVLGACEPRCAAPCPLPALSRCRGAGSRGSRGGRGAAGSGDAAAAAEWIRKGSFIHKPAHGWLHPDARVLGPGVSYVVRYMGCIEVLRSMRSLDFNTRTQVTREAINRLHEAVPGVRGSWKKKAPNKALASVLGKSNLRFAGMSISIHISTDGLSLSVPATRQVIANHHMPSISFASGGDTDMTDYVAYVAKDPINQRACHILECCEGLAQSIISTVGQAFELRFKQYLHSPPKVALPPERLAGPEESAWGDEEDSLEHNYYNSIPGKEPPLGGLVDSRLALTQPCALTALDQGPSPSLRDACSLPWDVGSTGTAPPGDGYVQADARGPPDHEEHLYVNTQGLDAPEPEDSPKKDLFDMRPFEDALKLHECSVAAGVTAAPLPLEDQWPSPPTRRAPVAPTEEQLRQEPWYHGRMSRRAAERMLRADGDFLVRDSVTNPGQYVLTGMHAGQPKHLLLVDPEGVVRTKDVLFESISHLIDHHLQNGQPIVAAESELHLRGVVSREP

SHIP1 = molecular target: T4, SHIP1 (Homo sapiens, UniProt Q92835); details: for percent of DMSO vehicle control: primary screen, 10 μM
T4 construct: made in house; host or cells: HEK293 (transient transfection), unpurified extract
T4 sequence (Q92835 1-1189): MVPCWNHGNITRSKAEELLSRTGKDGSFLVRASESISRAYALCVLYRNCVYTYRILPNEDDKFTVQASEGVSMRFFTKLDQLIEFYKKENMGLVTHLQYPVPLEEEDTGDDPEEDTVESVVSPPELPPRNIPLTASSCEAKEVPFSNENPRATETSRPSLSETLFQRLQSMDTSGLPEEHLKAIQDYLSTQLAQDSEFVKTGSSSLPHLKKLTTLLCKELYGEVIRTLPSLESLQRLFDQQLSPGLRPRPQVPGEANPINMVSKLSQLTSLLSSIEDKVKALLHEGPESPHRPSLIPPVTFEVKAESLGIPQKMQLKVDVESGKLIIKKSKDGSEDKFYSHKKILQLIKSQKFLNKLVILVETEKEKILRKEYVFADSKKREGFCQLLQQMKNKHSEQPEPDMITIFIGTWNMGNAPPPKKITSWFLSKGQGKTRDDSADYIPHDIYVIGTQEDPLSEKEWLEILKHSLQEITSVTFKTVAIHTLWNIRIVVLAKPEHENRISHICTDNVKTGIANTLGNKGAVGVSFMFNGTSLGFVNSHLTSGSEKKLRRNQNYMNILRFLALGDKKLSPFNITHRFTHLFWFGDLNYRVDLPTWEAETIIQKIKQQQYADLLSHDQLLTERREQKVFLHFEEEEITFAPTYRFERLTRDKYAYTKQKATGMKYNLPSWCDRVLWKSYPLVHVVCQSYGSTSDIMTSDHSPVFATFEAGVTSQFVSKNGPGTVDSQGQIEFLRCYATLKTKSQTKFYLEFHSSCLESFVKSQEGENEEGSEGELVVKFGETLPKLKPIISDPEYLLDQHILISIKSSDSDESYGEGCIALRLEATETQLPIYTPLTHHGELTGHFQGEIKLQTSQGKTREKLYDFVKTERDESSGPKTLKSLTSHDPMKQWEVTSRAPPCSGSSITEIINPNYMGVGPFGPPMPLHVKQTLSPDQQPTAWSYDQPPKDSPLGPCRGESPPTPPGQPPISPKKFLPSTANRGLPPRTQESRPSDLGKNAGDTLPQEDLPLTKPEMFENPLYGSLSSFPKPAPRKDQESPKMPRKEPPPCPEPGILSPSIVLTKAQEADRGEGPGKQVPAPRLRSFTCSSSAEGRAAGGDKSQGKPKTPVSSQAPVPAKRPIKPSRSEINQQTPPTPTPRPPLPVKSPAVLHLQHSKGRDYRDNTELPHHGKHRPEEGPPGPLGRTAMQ

LCK = molecular target: T5, LCK (Homo sapiens, UniProt P06239); details: read-out: percent of DMSO vehicle control; for remaining activity at 10 µM: primary screen
T5 construct: the DNA-tagged SH2 domain concentrations used in this study were <0.1 nM; made in house; host or cells: HEK293 (transient transfection, unpurified extract)

GRAP = molecular target: T6, GRAP (Homo sapiens, UniProt Q13588); details: read-out: percent of DMSO vehicle control; for remaining activity at 10 µM: primary screen
T6 construct: the DNA-tagged SH2 domain concentrations used in this study were <0.1 nM; made in house; host or cells: HEK293 (transient transfection; unpurified extract)

RASA1(SH2dom.N-term.) = molecular target: T7, RASA1(SH2dom.N-term.) (Homo sapiens, UniProt P20936); details: read-out: percent of DMSO vehicle control
T7 construct: SH2dom.N-term. denotes SH2 domain closest to N-terminus of protein; made in house; host or cells: HEK293 (transient transfection), unpurified extract
T7 sequence (P20936 181-272 limits assumed): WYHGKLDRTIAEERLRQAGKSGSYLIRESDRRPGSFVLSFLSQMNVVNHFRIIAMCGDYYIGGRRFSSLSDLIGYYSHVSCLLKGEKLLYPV

CRK = molecular target: T8, CRK (Homo sapiens, UniProt P46108); details: for percent of DMSO vehicle control at 10 µM / remaining activity at 10 µM: read-out: percent of DMSO vehicle control; for remaining activity at 10 µM: primary screen
T8 construct: the DNA-tagged SH2 domain concentrations used in this study were <0.1 nM; made in house; host or cells: HEK293 (transient transfection; unpurified extract)

SRC = molecular target: T9, SRC (Homo sapiens, UniProt P12931); details: read-out: percent of DMSO vehicle control
T9 construct: made in house; host or cells: HEK293 (transient transfection), unpurified extract
T9 sequence (P12931 whole entry): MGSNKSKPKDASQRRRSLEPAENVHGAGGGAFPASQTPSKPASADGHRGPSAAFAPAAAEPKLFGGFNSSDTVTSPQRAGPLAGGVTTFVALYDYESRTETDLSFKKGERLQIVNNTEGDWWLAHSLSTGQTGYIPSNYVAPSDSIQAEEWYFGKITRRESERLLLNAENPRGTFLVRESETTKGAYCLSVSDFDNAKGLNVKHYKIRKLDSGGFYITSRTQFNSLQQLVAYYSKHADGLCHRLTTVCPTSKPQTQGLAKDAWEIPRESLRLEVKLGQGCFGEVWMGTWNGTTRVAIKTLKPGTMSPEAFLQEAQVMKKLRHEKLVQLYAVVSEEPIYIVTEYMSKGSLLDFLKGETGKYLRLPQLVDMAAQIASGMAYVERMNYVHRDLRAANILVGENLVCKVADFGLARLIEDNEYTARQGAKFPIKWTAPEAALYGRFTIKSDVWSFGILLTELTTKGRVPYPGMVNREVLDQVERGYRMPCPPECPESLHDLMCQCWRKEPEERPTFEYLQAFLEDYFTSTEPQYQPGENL

T5 sequence (P06239 127-224 limits assumed): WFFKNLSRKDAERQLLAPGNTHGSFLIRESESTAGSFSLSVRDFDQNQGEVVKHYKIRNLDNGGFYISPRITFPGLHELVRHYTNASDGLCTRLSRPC
T8 sequence (P46108 13-118 limits assumed): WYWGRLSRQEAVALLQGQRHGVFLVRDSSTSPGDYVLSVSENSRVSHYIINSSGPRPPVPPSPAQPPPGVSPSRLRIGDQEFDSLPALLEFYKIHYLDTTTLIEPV
T6 sequence (Q13588 60-154 limits assumed): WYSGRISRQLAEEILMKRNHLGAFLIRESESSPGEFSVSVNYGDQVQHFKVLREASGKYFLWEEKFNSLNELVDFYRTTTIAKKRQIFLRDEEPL

| Structure (SMILES) | percent of DMSO vehicle control at 10 µM (GRB10) | remaining activity at 10 µM (SOCS4) | remaining activity at 10 µM (SHC2) | percent of DMSO vehicle control (SHIP1) | percent of DMSO vehicle control at 10 µM (LCK) | percent of DMSO vehicle control at 10 µM (GRAP) | remaining activity at 10 µM (RASA1(SH2dom.N-term.)) | percent of DMSO vehicle control at 10 µM (CRK) | remaining activity at 10 µM (SRC) | remaining activity at 10 µM (GRB10) | Kd (SOCS4; read-out: KD) | remaining activity at 10 µM (SOCS4; primary screen, 10 μM) | remaining activity at 10 µM (SHC2; primary screen, 10 μM) | remaining activity at 10 µM (LCK) | remaining activity at 10 µM (GRAP) | remaining activity at 10 µM (RASA1(SH2dom.N-term.); primary screen, 10 μM) | remaining activity at 10 µM (CRK) | remaining activity at 10 µM (SRC; primary screen, 10 μM) | also measured |
| --- | --- | --- | --- | --- | --- | --- | --- | --- | --- | --- | --- | --- | --- | --- | --- | --- | --- | --- | --- |
| NC(=O)CC[C@H](NC(=O)[C@@H]1CC[C@@H]2CCN(C(=O)CCCCCC#Cc3cccc4c3CN(C3CCC(=O)NC3=O)C4=O)C[C@H](NC(=O)c3cc4cc(C(F)(F)P(=O)(O)O)ccc4[nH]3)C(=O)N21)C(=O)NC(c1ccccc1)c1ccccc1 (stereo partly shown) [SD-36] | 111 ± 9.2% | 30 ± 17.2% | 94.9 ± 2.3% | 44.1±5.9% | 97.3 ± 3.9% | 89.2 ± 4.6% | 64.7 ± 0.3% | 77 ± 13.9% | 81.4 ± 1.5% |  |  |  |  |  |  |  |  |  | Kd (SOCS4): 5900 nM |
| CC(=O)N1CC[C@H]2CC[C@@H](C(=O)N[C@@H](CCC(N)=O)C(=O)NC(c3ccccc3)c3ccccc3)N2C(=O)[C@@H](NC(=O)c2cc3cc(C(F)(F)P(=O)(O)O)ccc3[nH]2)C1 [SI-109] | 122% | 123% | 131% | 101.8% | 127% | 141% | 123% | 119% | 117% |  |  |  |  |  |  |  |  |  |  |
| C/C(=C\C(=O)N[C@H](C(=O)N1CCC[C@H]1C(=O)N(c1ccccc1)c1ccc(I)cc1)C(C)(C)C)c1ccc(OP(=O)(O)O)cc1 [STAT6-IN-1] |  |  |  | 4.4±1.3% |  |  |  |  |  | 14.6 ± 11% | 13 nM | 0% | 47.3 ± 3.3% | 48.3 ± 1.3% | 52 ± 15.9% | 50.2 ± 0.4% | 34.5 ± 1.8% | 53.3 ± 8.1% | KD (GRB10; dose-response): No Hit; Kd (SHIP1; dose-response, read-out: KD): 4.4 ± 0.42 µM; Kd (CRK; dose-response, read-out: KD): 2004 ± 5.9 nM |
| CC(C)(C)[C@H](NC(=O)/C=C/c1ccc(OP(=O)(O)O)cc1)C(=O)N1CCC[C@H]1C(=O)N(c1ccccc1)c1ccc(I)cc1 [STAT6-IN-3] |  |  |  | 53.7±3.2% |  |  |  |  |  | 58.8 ± 17.6% | 10 nM | 0% | 85.2 ± 11.3% | 72 ± 20.4% | 73.5 ± 23.6% | 81.7 ± 8.5% | 80.4 ± 9.5% | 67 ± 21% |  |
| O=C(COc1ccc2cc(C(=O)Nc3ccccc3)ccc2c1)NCc1ccc(OP(=O)(O)O)c(OP(=O)(O)O)c1 [Stafib-1] |  |  |  | 61.1±7.3% |  |  |  |  |  | 78.1 ± 12.9% | 3900 ± 870 nM | 25.5 ± 12.4% | 83.4 ± 24.4% | 97.4 ± 7.6% | 76.2 ± 27% | 71.3 ± 8.8% | 90.2 ± 5.9% | 90.6 ± 5.2% |  |
